How the values were obtained:
[1] = test system: primary human T cells; test: FLuc circRNA LNP transfection of activated primary human T cells with or without ApoE3; assay type: cell-based; conditions: 200 ng RNA/well, 24 hours, 4 donors
Experimental: Primary human T cells from independent donors were stimulated with aCD3/aCD28 and allowed to proliferate for 6 days in the presence of human serum and IL-2. Then, 100,000 cells were plated in a 96 well plate and LNPs containing circRNA coding for Firefly Luciferase (FLuc) were added to the cells at 200 ng RNA/well with or without Apolipoprotein E3 (ApoE3). After 24-hour incubation, luminescence was quantified using the Bright-Glo Luciferase Assay System (Promega) according to manufacturer's instructions and background luminescence from cells not treated with LNPs was subtracted. […] (See Example 70 for LNP formulation procesure, e.g., for 10a-27 (5.7A), 10a-26 (5.7A), 10a-27 (4.5D), and 10a-26 (4.5D) LNPs.)

[2] = test system: splenic immune cells; test: Cre circRNA LNP transfection of splenic immune cells in Ai9 Cre reporter mice (tdTomato); assay type: in vivo; conditions: 0.5 mg/kg Cre RNA LNPs i.v., 48 hours
Experimental: Circular RNAs encoding Cre recombinase (Cre) are encapsulated into lipid nanoparticles as previously described. Female, 6-8 week old B6.Cg-Gt(ROSA)26Sortm9(CAG-tdTomato)Hze/J (Ai9) mice were dosed with lipid nanoparticles at 0.5 mg/kg RNA intravenously. Fluorescent tdTomato protein was transcribed and translated in Ai9 mice upon Cre recombination, meaning circular RNAs have been delivered to and translated in tdTomato+ cells. After 48 hr, mice were euthanized and the spleens were harvested, processed into a single cell suspension, and stained with various fluorophore-conjugated antibodies for immunophenotyping via flow cytometry.
Ai9 mice (B6.Cg-Gt(ROSA)26Sortm9(CAG-tdTomato)Hze/J, female, 6-8 weeks, n=3 per group) were injected i.v. with 0.5 mg/kg Cre circRNA LNPs or PBS. Ai9 mice transcribe and translate the fluorescent reporter tdTomato upon Cre recombination; meaning cells which are tdTomato+ have successfully been transfected with Cre circRNA. […] Flow cytometry was performed using an Attune Nxt Flow Cytometer (Thermo).

CCCCCCCCC(CCCCCC)C(=O)OCCCCCCN(CCCCCCOC(=O)C(CCCCCC)CCCCCCCC)CCCn1ccnc1C (centres unmarked) [Lipid 10a-27, ((3-(2-methyl-1H-imidazol-1-yl)propyl)azanediyl)bis(hexane-6,1-diyl) bis(2-hexyldecanoate)]
Firefly luminescence [1]: generally produced higher luminescence than those containing Lipid 10a-26 | tdTomato+ splenic immune cells [2]: transfect significantly more splenic immune cells than those made with Lipid 10a-46

From patent US20250283073A1 (ORNA THERAPEUTICS, INC., priority 2021, published 2025)
